# Test results as given in patent US20130143244A1, “SOX9 AS A MARKER FOR AGGRESSIVE CANCER” (ADMINISTRATORS OF THE TULANE EDUCATIONAL FUND, priority 2010, published 2013).
# “Also recorded” adds a separate entry of the source.
# B1: wnt3a: recombinant wnt3a protein (R&D Systems) used to activate wnt signaling (protein, UniProt P56704 19-352, looked up)
# Protein Wnt-3a: SYPIWWSLAVGPQYSSLGSQPILCASIPGLVPKQLRFCRNYVEIMPSVAEGIKIGIQECQHQFRGRRWNCTTVHDSLAIFGPVLDKATRESAFVHAIASAGVAFAVTRSCAEGTAAICGCSSRHQGSPGKGWKWGGCSEDIEFGGMVSREFADARENRPDARSAMNRHNNEAGRQAIASHMHLKCKCHGLSGSCEVKTCWWSQPDFRAIGDFLKDKYDSASEMVVEKHRESRGWVETLRPRYTYFKVPTERDLVYYEASPNFCEPNPETGSFGTRDRTCNVSSHGIDGCDLLCCGRGHNARAERRREKCRCVFHWCCYVSCQECTRVYDVHTCK
# Key:
# Format in all cases: cell-based, human
# MDA-MB-231 cells [1] = test: MTT cytotoxicity assay; conditions: for growth of MDA-MB-231 cells relative to control (cell viability by MTT): serum starved, increasing drug concentrations (TSA 50-500 nM, LMB 0.5-10 ng/ml), 48 h; for cell death: serum starved MDA-MB-231 cells, increasing drug concentrations
# Protocol: MTT cytotoxicity assay: MDA-MB-231 or MCF7 cells were plated onto 96 well plates at a density of 2.5×10^3 cells/well. Cells were allowed to attach overnight and serum starved for the next 24 h. Following starvation, cells were treated with increasing concentration of Trichostatin A (50-500 nM) or Leptomycin B (0.5-10 ng/ml) and allowed to grow for next 24 h. At the end of 24 h drug treatment, media was supplemented with an equal volume of media with 20% FBS. An MTT assay was used to determine cell viability after exposure to test compounds for 48 h, including the 24 h of incubation with 10% FBS. Briefly, 10 μl of MTT reagent (5 mg/ml in PBS) was added to each well, the plate was incubated for 2-4 h to allow for the formation of formazan crystals, the media was aspirated from all wells and crystals were dissolved with 150 μl DMSO. The optical densities were measured at 540 nm on a BioTek uQuant microplate spectrophotometer (BioTek Instruments, Inc., Winooski, Vt.) and the percent of surviving cells was calculated with respect to control or untreated cells. For the modified MTT assay, the classical MTT reagent was replaced with WST-8, which produces a water soluble formazan dye upon bioreduction. For this assay, at the end of drug treatment, cells were incubated with 10 μl of WST-8 per 100 μl media/per well for 2-3 h. O.D. at 450 nm was measured to determine cell viability in each well.
# [2] = test system: SOX9 localization in MDA-MB-231 cells; test: Immunofluorescence microscopy of SOX9 localization; conditions: serum-deprived MDA-MB-231 cells, TSA 500 nM or LMB 5 ng/mL for 4 h, then 10% FBS
# Protocol: Cells were grown on sterile glass coverslips in 6 well plates to 30%-40% confluence in their respective media, serum starved for the next 24 h treated with 1 nM all trans retinoic acid, 500 nM TSA or 5 ng/mL Leptomycin B for 4 h and then with 10% FBS for 2-3 h. Coverslips were washed three times in PBS and fixed in 4% paraformaldehyde for 30 minutes. After washing the coverslips again with PBS three times, they were blocked with 10% whole goat serum (Santa Cruz Biotechnology, Inc., Santa Cruz, Calif.) for thirty minutes. Cells were stained with anti-SOX9 (1:1,000 dil) antibody or anti-DDK tag antibody (OriGene Technologies, Inc., Rockville, Md.) and visualized using alexa 488-conjugated or 594-conjugated secondary (1:500 dilution) antibody (Molecular Probes®, Invitrogen Corp., Carlsbad, Calif.) as described previously (Chakravarty et al., Exp Biol Med (Maywood), 234:372-86 (2009)). For analysis, cells were visualized with a Nikon N300 microscope (Nikon Instruments Inc., Melville, N.Y.). Filter sets for FITC and DAPI were used to capture images that were then analyzed with Elements software. To establish that response to growth arrest signals was dependent on SOX9's cellular localization, both cell lines were also cultured on coverslips, serum starved for 24 h, and subsequently exposed to 10% FBS and stained with SOX9 antibody as described above.
# [3] = test system: p21, SOX9 and acetylated SOX9 in MDA-MB-231 cells; test: Immunoblot and immunoprecipitation analysis of p21, SOX9 and acetylated SOX9; conditions: for p21 expression, arbitrary units normalized to actin level, change compared to cells grown in 10% FBS medium: TSA 500 nM or LMB 5 ng/ml for 4 h
# Protocol: Asynchronous cell populations at a density of 50-60% in 6-well plates were serum deprived for 24 h, treated with TSA (500 nM), or Leptomycin B (5 ng/ml) for the next 4 h and then cultured in the presence of 10% FBS for 2-3 h before harvesting. Immunoblotting was performed by solubilizing cells in RIPA buffer, electrophoresing on 10% SDS-PAGE gels, incubating with primary antibodies for 1-2 h at room temperature, and detecting primary antibodies using HRP-conjugated secondary antibodies (1:30,000 dilution, Santa Cruz Biotechnology Inc.) and Amersham® ECU® (GE Healthcare Bio-Sciences Corp., Piscataway, N.J.) as described in Wang et al., Clin Cancer Res., 12:4755-65 (2006). Western blots were quantified by calculating an integrated density value (IDV) for each band using Bio-Rad's Gel Doc™ system and normalizing to the IDV of actin. For immunoprecipitation, total protein lysates were centrifuged at 14,000×g for 15 minutes at 4° C. Supernatants were then transferred to fresh centrifuge tubes and precleared with 50 μl of protein A Sepharose™ bead slurry (50%) per 1 ml of cell lysate. Incubation was continued at 4° C. for 30 minutes on a rocker or orbital shaker. Protein A beads were then collected by centrifugation at 14,000×g at 4° C. for 5 minutes. Protein concentration of the saved supernatant was determined after removing the beads. Approximately 500 μg to 1 mg of protein from each sample was transferred to fresh centrifuge tubes and diluted to 1 ml with ice cold PBS to reduce the concentration of the detergents in the buffer. The diluted lysates were incubated with 2 μg/mg protein anti-SOX9 antibody and rotated overnight at 4° C. Immuno complexes were captured with slurry of protein A-Sepharose™ CL-4B (Sigma) pre-washed with BSA through rotations for 1 h at 4° C. and washed three times with ice-cold modified RIPA buffer (Tris-HCl: 50 mM, pH 7.4, NP-40:1%, Na-deoxycholate: 0.25%, NaCl: 150 mM, EDTA: 1 mM, PMSF: 1 mM, NaF: 1 mM). Washed Sepharose™ beads were resuspended in 60 μl RIPA buffer with SDS dye and resolved on 10% SDS-PAGE gels. Blotted proteins were immunoprobed with antilysine antibody to detect the levels of acetylated SOX9.
# MDA-MB-231 cells [4] = test: Gene expression profiling using RT2 Profiler PCR Array; conditions: MDA-MB-231 cells serum starved, TSA for 4 h, then FBS
# Protocol: MDA-MB-231 cells with or without TSA treatment were harvested for total RNA using Trizol (Invitrogen) and reverse transcribed using RT^2 first strand kit from SABiosciences (Frederick, Md.). Real-Time PCR was performed according to the RT^2 Profiler PCR Array User manual (SABiosciences) using SYBR Green PCR Master Mix for the CFX96™ Real-Time PCR detection system from Bio-Rad (Bio-Rad Laboratories, Inc., Hercules, Calif.). The PAHS-090C PCR Array was repeated twice for each cDNA sample and the data were analyzed using Excel-based PCR Array Data Analysis Templates from SABiosciences.
# The average Ct value of each gene obtained from duplicate experiments was used to calculate its expression value, which was expressed as 2−ΔCt (ΔCt=CtGOI−Ave CtHKG; GOI=gene of interest, HKG=housekeeping gene, Ave CtHKG=average Ct value of five housekeeping genes).
# [5] = test system: beta catenin reporter (TOP-flash/FOP-flash) in MDA-MB-231 cells; test: TOP-flash / FOP-flash beta catenin reporter transfection experiment
# Protocol: The Col2a1 reporter gene (Lefebvre et al., Mol Cell Biol, 17:2336-46 (1997)) was kindly provided by Prof. Benoit deCrombrugghe's laboratory. The beta catenin reporter set containing the plasmids TOP-flash and FOP-flash were made available by Prof. Randall Moon's laboratory.
# For transfection, MDA-MB-231 cells were cultivated at 2.5×10^5 cells per well in 6-well plates. Twenty four hours later, transfection was performed using lipofectamine 2000 (Invitrogen) according the manufacturer's instruction. Cells in 6-well plates were transfected with 0.250 μg DNA of Col2a1 reporter or […] DNA of Top-flash or Fop-flash reporters, 10 ng of Renilla luciferase and 1.0 μg of wild type DDK tagged SOX9 per well. Top-flash or Fop-flash reporter transfected wells were treated with 15-ng/ml recombinant wnt3a protein (R&D Systems, Inc., Minneapolis, Minn.) after 24 h of transfection. All transfected cells were lysed directly in Promega's Dual Luciferase lysis buffer and collected with a cell scrape. Luciferase measurement was performed using a Optocomp I luminometer (MGM Instruments, Inc., Hamden, Conn.). Cellular localization of wild type DDK tagged SOX9 was detected using immunofluorescence as described above.
Molecule,growth of MDA-MB-231 cells relative to control (cell viability by MTT) (MDA-MB-231 cells [1]),cell death (MDA-MB-231 cells [1]),nuclear localization of SOX9 [2],"p21 expression, arbitrary units normalized to actin level, change compared to cells grown in 10% FBS medium ([3]; western blot) [fold]","acetylation of endogenous SOX9 protein ([3]; TSA 500 nM for 4 h, immunoprecipitation and anti acetylated lysine blot)","endogenous SOX9 protein expression, arbitrary units normalized to actin level, increase ([3]; TSA 500 nM for 4 h, western blot) [fold]",gene expression profile with versus without TSA treatment (MDA-MB-231 cells [4]),"induction of TOP-flash reporter, wnt3a treated versus untreated cells ([5]; MDA-MB-231 cells transfected with wild type (nuclear) SOX9, 15 ng/ml recombinant wnt3a) [fold]","FOP-FLASH reporter activity, wnt3a treated versus untreated cells ([5]; MDA-MB-231 cells, mutated LEF-1/TCF-binding sites control vector)"
"CCC(=C/[C@H](C)C/C=C/C(C)=C/[C@@H](C)C(=O)[C@@H](C)[C@H](O)[C@@H](C)C/C(C)=C/C(=O)O)/C=C/[C@@H]1OC(=O)C=C[C@@H]1C [LMB, leptomycin B]",unaffected,unable to retain SOX9 in the nucleus or induce cell death; also recorded: unaffected,unable to retain SOX9 in the nucleus; also recorded: unaffected,0.08,–,–,–,–,–
"CC(/C=C/C(=O)NO)=C\[C@@H](C)C(=O)c1ccc(N(C)C)cc1 [TSA, [R-(E,E)]-7-[4-(Dimethylamino)phenyl]-Nhydroxy-4,6-dimethyl-7-oxo-2,4-heptadienamide]",decrease in proliferative potential; also recorded: markedly heightened sensitivity to growth inhibition,dose dependent increase in cell death,marked increase in nuclear SOX9 staining; also recorded: enhanced nuclear localization of SOX9,1.3,enhanced acetylation of endogenous SOX9 protein,1.2,"several fold higher expression of genes involved in growth, development and differentiation and downregulation of migration, motility and cytoskeletal genes",–,–
B1,–,–,–,–,–,–,–,22,unchanged
